Literature values as cited in article PMC7898037, “Improving mitochondria and ER stability helps eliminate upper motor neuron degeneration that occurs due to mSOD1 toxicity and TDP‐43 pathology” (Clinical and Translational Medicine, 2021).

What was measured:
SOD1 model mouse = conditions: cited from earlier work
cortical neurons = test system: cortical neurons; set-up: method as in earlier work; conditions: ref 53 (compound 2), ref 54 (NU‐9); cited from earlier work
[1] = test system: SOD1^G93A‐expressing PC12 cell; conditions: PC12 cell‐based assay; cited from earlier work

Nc1nc2ccc(OC(F)(F)F)cc2s1 [riluzole]
longevity of the misfolded SOD1 (mSOD1) mouse model (SOD1 model mouse): failed to improve the longevity

O=C1CC(=O)CC(c2cc(C(F)(F)F)cc(C(F)(F)F)c2)C1 [compound 2]
penetration into neurons (cortical neurons): did not penetrate into neurons

O=C1CC(=O)CC(c2ccc(F)cc2)C1 [compound 1]
effect on mSOD1‐induced protein aggregation [1]: inhibit mSOD1‐induced protein aggregation | effect on mSOD1‐mediated toxicity [1]: reduce mSOD1‐mediated toxicity
